This note sets out measurements from the NIST ThermoML archive (doi:10.1016/j.fluid.2014.04.002).

Numbers after ± are expanded uncertainties.

Experiment in one series: not given
Conditions: 308.15 K; 101 kPa; Liquid; Concentric cylinders viscometry.
What is called viscosity is the resistance of a fluid to flow. Consider `C1CCOC1` [tetrahydrofuran], for which the viscosity stood at 0.4433 ± 0.0088 mPa·s.

Staying with this series, now noted: 308.15 K; 101 kPa; Liquid; Vibrating tube method.
What is called mass density is mass per unit of volume. Regarding `CCOC(=O)C(C)O` (racemic) [DL-ethyl lactate], the mass density stood at 1017.42 ± 0.87 kg/m3.
Regarding `CC(O)CO` (centres undefined) [1,2-propanediol], the mass density is on record as 1025.14 ± 0.25 kg/m3.
Same read-out and setting: the figure for `COCCOCCOCCOCCOC` [2,5,8,11,14-pentaoxapentadecane] is 998.153 ± 0.23 kg/m3.
The same measure, in the same setting: the figure for `OCCCO` [propan-1,3-diol] is 1043.43 ± 0.93 kg/m3.
`C1CCOC1` [tetrahydrofuran]: the mass density came to 871.384 ± 0.23 kg/m3.

The same series, now with this note: 313.15 K; 101 kPa; Liquid; Concentric cylinders viscometry.
With `CCOC(=O)C(C)O` (racemic) [DL-ethyl lactate], the viscosity stood at 1.658 ± 0.032 mPa·s.
As to `CC(O)CO` (centres undefined) [1,2-propanediol], the viscosity is 19.85 ± 0.34 mPa·s.
Same read-out and setting: the figure for `COCCOCCOCCOCCOC` [2,5,8,11,14-pentaoxapentadecane] is 2.407 ± 0.042 mPa·s; for `OCCCO` [propan-1,3-diol] it is 21.97 ± 0.42 mPa·s.
On the same count and under the same terms, under `C1CCOC1` [tetrahydrofuran] stands 0.4227 ± 0.0085 mPa·s.

The same series, now with this note: 313.15 K; 101 kPa; Liquid; Vibrating tube method.
Take `CCOC(=O)C(C)O` (racemic) [DL-ethyl lactate]: the mass density stood at 1011.9 ± 0.86 kg/m3.
`CC(O)CO` (centres undefined) [1,2-propanediol]: the mass density was 1021.35 ± 0.25 kg/m3.
On the same count and under the same terms, under `COCCOCCOCCOCCOC` [2,5,8,11,14-pentaoxapentadecane] stands 993.523 ± 0.23 kg/m3; under `OCCCO` [propan-1,3-diol], 1040.28 ± 0.92 kg/m3.
On the same count and under the same terms, the figure for `C1CCOC1` [tetrahydrofuran] is 865.82 ± 0.23 kg/m3.

Still in this series, the particulars now being: 318.15 K; 101 kPa; Liquid; Concentric cylinders viscometry.
Take `CCOC(=O)C(C)O` (racemic) [DL-ethyl lactate]: the viscosity came to 1.491 ± 0.029 mPa·s.
On the same count and under the same terms, the figure for `CC(O)CO` (centres undefined) [1,2-propanediol] is 15.73 ± 0.27 mPa·s; for `COCCOCCOCCOCCOC` [2,5,8,11,14-pentaoxapentadecane] it is 2.185 ± 0.038 mPa·s.
Still for that read-out and setting: the figure for `OCCCO` [propan-1,3-diol] is 18.14 ± 0.35 mPa·s; for `C1CCOC1` [tetrahydrofuran] it is 0.4005 ± 0.0082 mPa·s.

The same series, now with this note: 318.15 K; 101 kPa; Liquid; Vibrating tube method.
On to `CCOC(=O)C(C)O` (racemic) [DL-ethyl lactate], for which the mass density is given as 1006.36 ± 0.85 kg/m3.
As for `CC(O)CO` (centres undefined) [1,2-propanediol], the mass density amounted to 1017.52 ± 0.24 kg/m3.
On the same count and under the same terms, the figure for `COCCOCCOCCOCCOC` [2,5,8,11,14-pentaoxapentadecane] is 988.892 ± 0.23 kg/m3; for `OCCCO` [propan-1,3-diol] it is 1037.11 ± 0.91 kg/m3; for `C1CCOC1` [tetrahydrofuran] it is 860.213 ± 0.23 kg/m3.

The same series, now with this note: 323.15 K; 101 kPa; Liquid; Concentric cylinders viscometry.
As to `CCOC(=O)C(C)O` (racemic) [DL-ethyl lactate], the viscosity is reported as 1.349 ± 0.026 mPa·s.
Same read-out and setting: the figure for `CC(O)CO` (centres undefined) [1,2-propanediol] is 12.64 ± 0.22 mPa·s; for `COCCOCCOCCOCCOC` [2,5,8,11,14-pentaoxapentadecane] it is 2.003 ± 0.035 mPa·s; for `OCCCO` [propan-1,3-diol] it is 15.2 ± 0.29 mPa·s.
`C1CCOC1` [tetrahydrofuran]: the viscosity was 0.3636 ± 0.0076 mPa·s.

The same series, now with this note: 323.15 K; 101 kPa; Liquid; Vibrating tube method.
As for `CCOC(=O)C(C)O` (racemic) [DL-ethyl lactate], the mass density was found to be 1000.79 ± 0.84 kg/m3.
Still for that read-out and setting: under `CC(O)CO` (centres undefined) [1,2-propanediol] stands 1013.66 ± 0.24 kg/m3.
Still for that read-out and setting: under `COCCOCCOCCOCCOC` [2,5,8,11,14-pentaoxapentadecane] stands 984.262 ± 0.23 kg/m3; under `OCCCO` [propan-1,3-diol], 1033.91 ± 0.91 kg/m3.
The same measure, in the same setting: under `C1CCOC1` [tetrahydrofuran] stands 854.558 ± 0.23 kg/m3.

A further series is described as follows: refractive index (Na D-line) (dimensionless). Conditions: 288.15 K; 101.33 kPa; Liquid; Standard Abbe refractometry.
By refractive index is commonly meant the speed of light in vacuum divided by its phase velocity in the sample. Turning to `CCOC(=O)C(C)O` (racemic) [DL-ethyl lactate], the refractive index is on record as 1.41537 ± 0.00051.
Same read-out and setting: the figure for `CC(O)CO` (centres undefined) [1,2-propanediol] is 1.43437 ± 0.00037; for `COCCOCCOCCOCCOC` [2,5,8,11,14-pentaoxapentadecane] it is 1.43553 ± 0.00037; for `OCCCO` [propan-1,3-diol] it is 1.44091 ± 0.00051.
In the case of `C1CCOC1` [tetrahydrofuran], the refractive index was found to be 1.41005 ± 0.00037.

The series is the same for the next values; noted with them: 293.15 K; 101.33 kPa; Liquid; Standard Abbe refractometry.
As for `CCOC(=O)C(C)O` (racemic) [DL-ethyl lactate], the refractive index stood at 1.41307 ± 0.00051.
`CC(O)CO` (centres undefined) [1,2-propanediol]: the refractive index stood at 1.4327 ± 0.00037.
In the case of `COCCOCCOCCOCCOC` [2,5,8,11,14-pentaoxapentadecane], the refractive index is reported as 1.43338 ± 0.00037.
Same read-out and setting: the figure for `OCCCO` [propan-1,3-diol] is 1.43949 ± 0.00051.
Still for that read-out and setting: the figure for `C1CCOC1` [tetrahydrofuran] is 1.40737 ± 0.00037.

The series is the same for the next values; noted with them: 298.15 K; 101.33 kPa; Liquid; Standard Abbe refractometry.
Regarding `CCOC(=O)C(C)O` (racemic) [DL-ethyl lactate], the refractive index amounted to 1.41076 ± 0.00051.
For `CC(O)CO` (centres undefined) [1,2-propanediol], the refractive index was found to be 1.43102 ± 0.00037.
Consider `COCCOCCOCCOCCOC` [2,5,8,11,14-pentaoxapentadecane], for which the refractive index was 1.43123 ± 0.00037.
Still for that read-out and setting: the figure for `OCCCO` [propan-1,3-diol] is 1.43808 ± 0.00051; for `C1CCOC1` [tetrahydrofuran] it is 1.40472 ± 0.00037.

Still in this series, the particulars now being: 303.15 K; 101.33 kPa; Liquid; Standard Abbe refractometry.
For the compound `CCOC(=O)C(C)O` (racemic) [DL-ethyl lactate], the refractive index stood at 1.40843 ± 0.00051.
Regarding `CC(O)CO` (centres undefined) [1,2-propanediol], the refractive index amounted to 1.42934 ± 0.00037.
Take `COCCOCCOCCOCCOC` [2,5,8,11,14-pentaoxapentadecane]: the refractive index was 1.42906 ± 0.00037.
